Laboratory results as given in patent publication US10617734B2, “STAT3 and ERK signal pathway inhibitor comprising mogrosides and analogs thereof” (BEIJING UNIVERSITY OF AGRICULTURE, priority 2014, dated 2020).

Experiments:
[1] = tested on: human melanoma A875 cells; assay: Cell cycle distribution, PI staining, flow cytometer; assay type: cell-based; settings: human melanoma A875 cells, 10 μmol/L, 24 h
From the text: (§1) The influences of Mogroside I E1, Mogroside II A2 and mogrol on the cell cycle distribution of the histiocytic lymphoma U937 cells, the human melanoma A875 cells and the leukemia cells K562.
(§2) The cell cycle arrest achieved by drugs is an important approach to the inhibition of cancer cell proliferation.

[2] = tested on: histiocytic lymphoma U937 cells; assay: as above; assay type: cell-based; settings: 24 h; for proportion of cells in G0/G1 phase with the rise of the concentration: U937 cells, 0, 1, 10, 150 and 250 μmol/L; for cell cycle distribution (proportion of cells of G0/G1 phase): U937 cells, 10 μmol/L
From the text: as §1, §2

lymphoma U937 cells [3] = assay: Cell apoptosis, Annexin V-FITC/PI, flow cytometer; assay type: cell-based; settings: 10 μmol/L, 24 h
Method: (§3) Lymphoma U937 cells, human melanoma A875 cells and leukemia cells K562 in logarithmic growth phase were selected, and after the respective culture with 0 and 10 μmol/L of the mogrosides and analogs thereof (i.e. Mogroside I E1, Mogroside II A2 and mogrol) for 24 h, cells were collected and washed twice with 200 μl of cold PBS, and then the cells were collected again; 100 μl of binding buffer was added for re-suspending the cells, and after the addition of 2 μl of Annexin V-FITC and well mixing, the resulting mixture was placed in dark at room temperature for 10 min, and then 5 μl of propidium iodide (PI) was added and then well mixed; the mixture was placed in dark at room temperature for 10 min, and detected by flow cytometer, and the results are shown in FIGS. 13-15.

leukemia cells K562 [4] = assay: Cell cycle distribution, PI staining, flow cytometer; assay type: cell-based, human; settings: leukemia cells K562, 10 μmol/L, 24 h
From the text: as §1, §2

[5] = tested on: cycle regulatory protein P21; assay: Western Blotting of P21 in A875 cells; assay type: cell-based; settings: human melanoma A875 cells, 10 μmol/L, 24 h
Method: (§4) The STAT3 and ERK signal pathways can regulate cyclins and apoptosis genes, and in order to verify the effects of […] and mogrol, the expression status of downstream genes of STAT3 and ERK was detected, wherein the influences of the three mogrosides and analogs thereof, i.e. Mogrol I E1, Mogrol II A2 and mogrol, on Bcl-2 and P21 proteins in the histiocytic lymphoma U937 cells, human melanoma A875 cells and leukemia cells K562 were determined, respectively.
(§5) The regulation of Bcl-2 and P21 proteins by mogrosides and analog thereof to the was detected by Western Blotting, specifically: histiocytic lymphoma U937 cells, human melanoma A875 cells and leukemia cells K562 (1×10^6 cells/well) were inoculated into a 6-well culture plate overnight, and 0 and 10 μmol/L of the mogrosides and analogs thereof were added respectively, and kept cultured for 24 h. […]
(§6) The protein concentration was measured with bovine serum albumin (BSA) as the standard. 50 μg of the total proteins were separated by polyacrylamide gel electrophoresis with 12% SDS, and electrophoretically transferred to a PVDF membrane (polyvinylidene fluoride membrane), and blocked for 1 h by 5% of skim milk (containing 0.1% of Tween 20), and then antibodies P21, Bcl-2 and β-actin were added, wherein the primary antibody was incubated at 4° C. overnight (β-actin was used as reference loading amount); the membrane was washed for 3 times with TBS-T, 5 min each time; secondary antibody marked by horseradish peroxidase (HRP) was added for incubation at room temperature for 1 h, the membrane was washed with rinse solution (TBS-T) for 3 times, 10 min each time, and then ECL was added for incubation in dark for 5 min, and subsequently, a fluorescence imaging analyzer was used for image development and scanning analysis.

[6] = tested on: cycle regulatory protein P21; assay: Western Blotting of P21 in U937 cells; assay type: cell-based; settings: 10 μmol/L, 24 h
Method: as §4, §5, §6

[7] = tested on: human melanoma A875 cells; assay: Cell apoptosis, Annexin V-FITC/PI, flow cytometer; assay type: cell-based; settings: for cell apoptosis: 10 μmol/L, 24 h
Method: as §3, with “Mogroside” for “Lymphoma U937 cells, human melanoma A875 cells and leukemia cells K562 in logarithmic growth phase were selected, and after the respective culture with 0 and 10 μmol/L of the mogrosides and analogs thereof (i.e. Mogroside”

leukemia cells K562 [8] = assay: Cell apoptosis, Annexin V-FITC/PI, flow cytometer; assay type: cell-based, human; settings: leukemia cells K562, 10 μmol/L, 24 h
Method: as §3

[9] = tested on: anti-apoptotic protein Bcl-2; assay: Western Blotting of Bcl-2 in A875 cells; assay type: cell-based; settings: human melanoma A875 cells, 10 μmol/L, 24 h
Method: as §4, §5, §6

leukemia cells K562 [10] = assay: Cell morphology, Hoechst 33258 staining, fluorescence microscope; assay type: cell-based, human; settings: leukemia cells K562, 10, 100 and 250 μmol/L, 24-hour culture
Method: (§7) Lymphoma U937 cells, human melanoma A875 cells and leukemia cells K562 in logarithmic growth phase were selected, and the concentrations of the cells were adjusted to 1×10^4 cells/mL, and the cells were transferred to a 6-well plate for culture, and after the 24-hour culture, drugs were added to achieve final concentrations of 0, 10, 100 and 250 μmol/L, wherein only whole medium was added to the negative control groups, while Mogroside II A2 was added to the positive control groups, after 24-hour culture, waste solution was removed, and fixing solution was added to each well for fixing for 25 min, and then the resulting mixture was washed twice, 3 min each time, and then Hoechst 33258 staining solution was added for staining in dark at room temperature for 30 min, and the cell morphology variation was observed using a fluorescence microscope.

[11] = tested on: anti-apoptotic protein Bcl-2; assay: Western Blotting of Bcl-2 in K562 cells; assay type: cell-based, human; settings: leukemia cells K562, 10 μmol/L, 24 h
Method: as §4, §5, §6

lymphoma U937 cells [12] = assay: Cell morphology, Hoechst 33258 staining, fluorescence microscope; assay type: cell-based; settings: lymphoma U937 cells, 10, 100 and 250 μmol/L, 24-hour culture
Method: as §7

[13] = tested on: human melanoma A875 cells; assay: as above; assay type: cell-based; settings: A875 melanoma cells, 10, 100 and 250 μmol/L, 24-hour culture
Method: as §7

[14] = tested on: anti-apoptotic protein Bcl-2; assay: Western Blotting of Bcl-2 in U937 cells; assay type: cell-based; settings: 10 μmol/L, 24 h
Method: as §4, §5, §6

[15] = tested on: cycle regulatory protein P21; assay: Western Blotting of P21 in K562 cells; assay type: cell-based, human; settings: leukemia cells K562, 10 μmol/L, 24 h
Method: as §4, §5, §6

[16] = tested on: prostate cancer cells, renal carcinoma cells, head and neck squamous cell carcinoma cells, lung cancer cells, ovarian cancer cells, breast cancer cells …; assay: Tests of examples 3 to 8 on further cancer cells; assay type: cell-based; settings: pancreatic, liver and colon cancer cells
[17] = tested on: lymphoma U937 cells, human melanoma A875 cells and leukemia cells K562; assay: Tests of examples 3 to 8 taken together; assay type: cell-based; settings: Western Blotting, cell cycle, apoptosis, Hoechst, MTT

Row | Compound | cell cycle distribution (proportion of cells in the G0/G1 phase) [1] | proportion of cells in G0/G1 phase with the rise of the concentration [2] | cell cycle distribution (proportion of cells of G0/G1 phase) [2] | cell apoptosis (lymphoma U937 cells [3]) | cell cycle distribution (cell cycle arrest) (leukemia cells K562 [4]) | expression of cycle regulatory protein P21 [5] | expression of cycle regulatory protein P21 [6] | cell apoptosis [7] | cell apoptosis (leukemia cells K562 [8]) | expression of anti-apoptotic protein Bcl-2 [9] | cell morphology variation (Hoechst 33258) (leukemia cells K562 [10]) | expression of anti-apoptotic protein Bcl-2 [11] | cell morphology variation (Hoechst 33258) (lymphoma U937 cells [12]) | cell morphology variation (Hoechst 33258) [13] | expression of anti-apoptotic protein Bcl-2 [14] | expression of cycle regulatory protein P21 [15] | results of the tests of examples 3 to 8 on further cancer cells [16] | results of the tests of examples 3 to 8 [17] | amount for cell apoptosis with the rise of the concentration ([7]; different concentrations (FIG. 16))
1 | C[C@H](CC[C@@H](O)C(C)(C)O)[C@H]1CC[C@@]2(C)[C@H]3CC=C4[C@@H](CC[C@H](O[C@@H]5O[C@H](CO)[C@@H](O)[C@H](O)[C@H]5O)C4(C)C)[C@]3(C)C(O)C[C@]12C (some centres unmarked) [Mogroside I E1] | G0/G1 arrest | gradually increased | G0/G1 arrest | induce the apoptosis | arrested | significantly up-regulated | significantly up-regulated | induce the apoptosis | induce the apoptosis | significantly down-regulated | identical to the results of Mogroside II A2 | significantly down-regulated | identical to the results of Mogroside II A2 | identical to the results of Mogroside II A2 | significantly down-regulated | significantly up-regulated | – | – | –
2 | C[C@H](CC[C@@H](O[C@@H]1O[C@H](CO[C@@H]2O[C@H](CO)[C@@H](O)[C@H](O)[C@H]2O)[C@@H](O)[C@H](O)[C@H]1O[C@@H]1O[C@H](CO)[C@@H](O)[C@H](O)[C@H]1O)C(C)(C)O)[C@H]1CC[C@@]2(C)[C@H]3CC=C4[C@H](CC[C@H](O[C@@H]5O[C@H](CO[C@@H]6O[C@H](CO)[C@@H](O)[C@H](O)[C@H]6O)[C@@H](O)[C@H](O)[C@H]5O[C@@H]5O[C@H](CO)[C@@H](O)[C@H](O)[C@H]5O)C4(C)C)[C@]3(C)[C@H](O)C[C@]12C [Mogroside VI] | – | – | – | – | – | – | – | – | – | – | – | – | – | – | – | – | identical to the results of the lymphoma U937 cells | identical to those of Mogrol I E1 and Mogrol II A2 | –
3 | Mogrol III | – | – | – | – | – | – | – | – | – | – | – | – | – | – | – | – | identical to the results of the lymphoma U937 cells | identical to those of Mogrol I E1 and Mogrol II A2 | –
4 | Mogrol IV | – | – | – | – | – | – | – | – | – | – | – | – | – | – | – | – | identical to the results of the lymphoma U937 cells | identical to those of Mogrol I E1 and Mogrol II A2 | –
5 | C[C@H](CC[C@@H](O)C(C)(C)O)[C@H]1CC[C@@]2(C)[C@H]3CC=C4[C@@H](CC[C@H](O[C@@H]5O[C@H](CO[C@@H]6O[C@H](CO)[C@@H](O)[C@H](O)[C@H]6O)[C@@H](O)[C@H](O)[C@H]5O)C4(C)C)[C@]3(C)[C@H](O)C[C@]12C [Mogroside II A2] | G0/G1 arrest | gradually increased | G0/G1 arrest | induce the apoptosis | arrested | significantly up-regulated | significantly up-regulated | induce the apoptosis | induce the apoptosis | significantly down-regulated | identical to the results of the human melanoma A875 cells | significantly down-regulated | identical to the results of the human melanoma A875 cells | typical variation of cell apoptosis | significantly down-regulated | significantly up-regulated | – | – | the amount for cell apoptosis increases
6 | C[C@H](CC[C@@H](O[C@@H]1O[C@H](CO[C@@H]2O[C@H](CO)[C@@H](O)[C@H](O)[C@H]2O)[C@@H](O)[C@H](O)[C@H]1O[C@@H]1O[C@H](CO)[C@@H](O)[C@H](O)[C@H]1O)C(C)(C)O)[C@H]1CC[C@@]2(C)[C@@H]3CC=C4[C@@H](CC[C@H](O[C@@H]5O[C@H](CO[C@@H]6O[C@H](CO)[C@@H](O)[C@H](O)[C@H]6O)[C@@H](O)[C@H](O)[C@H]5O)C4(C)C)[C@]3(C)[C@H](O)C[C@]12C [Mogroside V] | – | – | – | – | – | – | – | – | – | – | – | – | – | – | – | – | identical to the results of the lymphoma U937 cells | identical to those of Mogrol I E1 and Mogrol II A2 | –
